Earlier results as cited in US6475716B1, “Method for preserving mammalian organs” (Biobank Co., Ltd., priority 2001, dated 2002).

System: cell membranes of the heart
Conditions: heart exposed to low temperature of 4° C. or ischemic injury

SMILES: OC[C@H]1O[C@H](O[C@H]2O[C@H](CO)[C@@H](O)[C@H](O)[C@H]2O)[C@H](O)[C@@H](O)[C@@H]1O [trehalose]
- protection of cell membranes of the heart: had the ability to protect cell membranes of the heart
